Settings: 101.33 kPa; for mass density: Vibrating tube method; for speed of sound: Sing-around technique in a fixed-path interferometer; for viscosity: Visco Elite L rheometer

CCCCCCCC/C=C\CCCCCCCC(=O)O.NCCO [2-hydroxyethylammonium oleate]
Settings	mass density [kg/m3]	speed of sound [m/s]	viscosity [mPa·s]
327.41 K, Liquid crystal of unknown type	917.867	–	–
327.66 K, Liquid crystal of unknown type	917.707	1414.3	–
327.91 K, Liquid crystal of unknown type	917.547	1413.5	–
328.16 K, Liquid crystal of unknown type	917.387	1412.7	–
328.41 K, Liquid crystal of unknown type	917.226	1412	–
328.66 K, Liquid crystal of unknown type	917.066	1411.2	–
328.9 K, Liquid crystal of unknown type	916.907	1410.4	–
329.16 K, Liquid crystal of unknown type	916.746	1409.6	–
329.41 K, Liquid crystal of unknown type	916.585	1408.9	–
329.66 K, Liquid crystal of unknown type	916.424	1408.1	–
329.91 K, Liquid crystal of unknown type	916.265	1407.3	–
330.16 K, Liquid crystal of unknown type	916.103	1406.5	–
330.41 K, Liquid crystal of unknown type	915.943	1405.8	–
330.66 K, Liquid crystal of unknown type	915.784	1405	–
330.91 K, Liquid crystal of unknown type	915.622	1404.2	–
331.16 K, Liquid crystal of unknown type	915.461	1403.5	–
331.4 K, Liquid crystal of unknown type	915.3	1402.7	–
331.66 K, Liquid crystal of unknown type	915.14	1401.9	–
331.91 K, Liquid crystal of unknown type	914.98	1401.2	–
332.16 K, Liquid crystal of unknown type	914.818	1400.4	–
332.41 K, Liquid crystal of unknown type	914.658	1399.6	–
332.66 K, Liquid crystal of unknown type	914.496	1398.8	–
332.91 K, Liquid crystal of unknown type	914.336	1398.1	–
333.16 K, Liquid crystal of unknown type	914.175	1397.3	–
333.41 K, Liquid crystal of unknown type	914.015	1396.5	–
333.66 K, Liquid crystal of unknown type	913.853	1395.7	–
333.91 K, Liquid crystal of unknown type	913.692	1395	–
334.16 K, Liquid crystal of unknown type	913.531	1394.2	–
334.41 K, Liquid crystal of unknown type	913.369	1393.4	–
334.66 K, Liquid crystal of unknown type	913.208	1392.6	–
334.91 K, Liquid crystal of unknown type	913.046	1391.9	–
335.16 K, Liquid crystal of unknown type	912.885	1391.1	–
335.4 K, Liquid crystal of unknown type	912.725	1390.3	–
335.66 K, Liquid crystal of unknown type	912.564	1389.6	–
335.91 K, Liquid crystal of unknown type	912.403	1388.8	–
336.16 K, Liquid crystal of unknown type	912.241	1388	–
336.41 K, Liquid crystal of unknown type	912.079	1387.2	–
336.66 K, Liquid crystal of unknown type	911.917	1386.5	–
336.91 K, Liquid crystal of unknown type	911.757	1385.8	–
337.16 K, Liquid crystal of unknown type	911.595	1385	–
337.41 K, Liquid crystal of unknown type	911.432	1384.2	–
337.66 K, Liquid crystal of unknown type	911.272	1383.5	–
337.91 K, Liquid crystal of unknown type	911.11	1382.7	–
338.15 K, Liquid crystal of unknown type	–	–	225.9
338.16 K, Liquid crystal of unknown type	910.95	1381.9	–
338.41 K, Liquid crystal of unknown type	910.787	1381.2	–
338.66 K, Liquid crystal of unknown type	910.626	1380.4	–
338.9 K, Liquid crystal of unknown type	910.464	1379.7	–
339.16 K, Liquid crystal of unknown type	910.301	1378.9	–
339.41 K, Liquid crystal of unknown type	910.142	1378.1	–
339.66 K, Liquid crystal of unknown type	909.978	1377.4	–
339.9 K, Liquid crystal of unknown type	909.815	1376.6	–
340.16 K, Liquid crystal of unknown type	909.655	1375.9	–
340.4 K, Liquid crystal of unknown type	909.492	1375.1	–
340.66 K, Liquid crystal of unknown type	909.33	1374.4	–
340.91 K, Liquid crystal of unknown type	909.169	1373.6	–
341.16 K, Liquid crystal of unknown type	909.006	1372.9	–
341.41 K, Liquid crystal of unknown type	908.843	1372.1	–
341.66 K, Liquid crystal of unknown type	908.682	1371.3	–
341.9 K, Liquid crystal of unknown type	908.521	1370.6	–
342.16 K, Liquid crystal of unknown type	908.356	1369.8	–
342.41 K, Liquid crystal of unknown type	908.195	1369.1	–
342.65 K, Liquid crystal of unknown type	908.033	1368.3	–
342.9 K, Liquid crystal of unknown type	907.872	1367.6	–
343.15 K, Liquid crystal of unknown type	907.717	1366.9	–
348.15 K, Liquid crystal of unknown type	–	–	129.1
353.15 K, Liquid crystal of unknown type	–	–	97.5
358.15 K, Liquid crystal of unknown type	–	–	79.2
368.15 K, Liquid	–	–	50.5

Reference: the NIST ThermoML archive (doi:10.1016/j.fluid.2010.08.022)
